Test [1] deals with P. falciparum 3D7 (CQ-sensitive). The test is described as follows: HRP2-based ELISA growth inhibition, 3D7 strain. The test is classed as cell-based. Particulars: Plasmodium falciparum, unmarked values: HRP II ELISA, 72 h. The text has this: (§1) Highly sensitive HRP2-based ELISA and [^3H]-hypoxanthine incorporation assay were used as markers for inhibition of parasite growth as previously described (12, 14). A solvent control and a chloroquine (CQ) control were included in the HRP2-based ELISA. CQ, lumefantrine and artesunate were included as controls in the [^3H]-hypoxanthine assay series.
(§2) The assay protocol of the HRP2-based ELISA is described in more detail in the following paragraphs.
(§3) The P. falciparum clones were maintained in continuous culture as described previously (10). Briefly, 3D7 (CQ-sensitive), NF54, and K1 (CQ-resistant) P. falciparum clones were obtained from MR4/American Type Culture Collection, Manassas, Va., USA under the accession numbers MR4-102 (3D7), MRA-1000 (NF54), and MR4-159 (K1). P. falciparum cultures were maintained in 25 cm^2 flasks. Parasites were cultured in RPMI 1640 (Sigma Aldrich, Austria) medium containing 10% human serum at a hematocrit of 5% (blood group 0 negative) at 37° C. under an atmosphere of 5% CO2, 5% O2 and 90% N2. The medium was changed every 24 to 48 hours. The culture was diluted and fresh erythrocytes were added whenever the parasite density reached >1%.
(§4) Stock solutions of compounds of formula I were prepared in DMSO (10 mg/mL). Stock concentrations of chloroquine and lumefantrine always remained 1 mg/mL and were prepared in 70% ethanol. Coating of culture plates with compounds of formula I and controls: 96 wells culture plates were coated as described previously (11). Working standards were prepared by diluting the stock solutions in RPMI1640 to obtain the desired final concentrations. Serial three-fold dilutions (seven concentrations and one drug-free control well) of the drugs (25 μL/well) were dispensed in duplicate into standard 96-well micro culture plates. Chloroquine was included as a reference drug in all experiments.
(§5) After reaching a parasitemia of 5% or higher, 5 mL of cell medium mixture were centrifuged at 700 g for 5 minutes at room temperature (RT). Packed red cells were resuspended in 3 mL of 5% D-sorbitol (Sigma Aldrich, Austria) in water at RT and immediately centrifuged again at 700 g for 5 minutes at RT followed by three washes with 3 mL of RPMI1640 medium. […].
(§6) Samples were diluted with RPMI1640 medium containing 0.5% Albumax II (GIBCO, Invitrogen, Vienna, Austria) by adding uninfected red blood cells to 1.5% hematocrit and 0.05% parasitemia. 150 μL of this cell medium mixture was then added to each well of 96-well plates precoated with test compounds and incubated at 37° C. for 72 hours in a gas mixture containing 5% CO2, 5% O2, and 90% N2. After 72 hours the plates were frozen at −20° C. until the histidine rich protein II assay (23).
(§7) A highly sensitive HRPII ELISA was used based on two commercially available monoclonal antibodies (Immunology Consultants Laboratory, Inc., Newberg, Oreg.) directed against P. falciparum-specific HRPII: MPFM-55A, an immunoglobulin M antibody served as the primary capture antibody and HRP-conjugated MPFG-55P (Immunology Consultants Laboratory, Inc., Newberg, Oreg.) as secondary antibody. The ELISA was employed to assess growth inhibition as a measure of drug susceptibility as previously described. Optical density was measured at 450 nm using a standard ELISA plate reader (12-13).
(§8) Hyperbolic concentration response curves were fitted to the data points by nonlinear least squares using the solver add-in of the Excel software.
(§9) Indicated in TABLE 2 are the IC50 [μM] values for growth inhibition of the 3D7 (NF54) and K1 strains of P. falciparum for the compounds of formula I indicated with their formula numbers in TABLE 2. Unmarked IC50 values for K1 and 3D7 strains of P. falciparum have been determined by HRP II enzyme linked immunosorbent assay (ELISA) as described above. […]
On the technique in general: In an ELISA, binding on a coated surface is turned into a signal by an enzyme label.

Test [2] relates to P. falciparum K1 (CQ-resistant). The test is described as follows: HRP2-based ELISA growth inhibition, K1 strain. The class given is cell-based. The settings on record: Plasmodium falciparum, unmarked values: HRP II ELISA, 72 h.
From the text: as §1, §2, §3, §4, §5, §6, §7, §8, §9

The structures appear in SMILES notation.

In the case of `O=C(NCc1ccccc1)c1ccccc1OCC(O)CNCCC12CC3CC(CC(C3)C1)C2` (stereo not drawn) [Compound I-62, 2-[3-(2-Adamantan-1-yl-ethylamino)-2-hydroxy-propoxy]-N-benzyl-benzamide], the 50% inhibitory concentration (IC50) (commonly the concentration at which inhibition is half-maximal) in test [1] amounted to 704 nM; in test [2], 30 nM.

For the molecule `C#CCOc1ccc(OCC(O)CNCc2ccc(C3(C(F)(F)F)N=N3)cc2)c(C(=O)NCCC(C)C)c1` (stereo not drawn) [Compound I-44, 2-{2-Hydroxy-3-[4-(3-trifluoromethyl-3H-diazirin-3-yl)-benzylamino]-propoxy}-N-(3-methyl-butyl)-5-prop-2-ynyloxy-benzamide], the IC50 amounted to 1310 nM in test [1] and 466 nM in test [2].

Take `COc1ccc(CNC(=O)c2ccccc2OCC(O)CNC2C3CC4CC(C3)CC2C4)cc1` (stereo not drawn) [Compound I-8, 2-[3-(Adamantan-2-ylamino)-2-hydroxy-propoxy]-N-(4-methoxy-benzyl)-benzamide]: the figures for the IC50 in test [1] and in test [2] were 140 nM and 13 nM, respectively.

`O=C(NCc1ccccc1)c1ccccc1OCC(O)CN(C1CC1)C1C2CC3CC(C2)CC1C3` (stereo not drawn) [Compound I-20, 2-[3-(Adamantan-2-yl-cyclopropyl-amino)-2-hydroxy-propoxy]-N-benzyl-benzamide]: the IC50 in test [1] stood at 1260 nM; in test [2], 100 nM.

For `O=C(NCc1ccccc1)c1ccccc1OCC(O)CN(CCCc1ccccc1)C1C2CC3CC(C2)CC1C3` (stereo not drawn) [Compound I-23, 2-{3-[Adamantan-2-yl-(3-phenyl-propyl)-amino]-2-hydroxy-propoxy}-N-benzyl-benzamide], the results for the half-maximal inhibitory concentration (IC50) in test [1] and in test [2] were 226 nM and 34 nM, respectively.

On to `O=C(NCc1ccccc1)c1ccccc1OCC(O)CNC12CC3CC(CC(C3)C1)C2` (stereo not drawn) [Compound I-1, 2-[3-(Adamantan-1-ylamino)-2-hydroxy-propoxy]-N-benzyl-benzamide], for which the IC50 in test [1] stood at 2460 nM; in test [2], 507 nM.

As to `O=C(NCc1ccccc1)c1ccccc1OCC(O)CNC1C2CC3CC(C2)CC1C3` (stereo not drawn) [Compound I-6, 2-[3-(Adamantan-2-ylamino)-2-hydroxy-propoxy]-N-benzyl-benzamide], the IC50 was 121 nM in test [1] and 29 nM in test [2].

Regarding `C#CCOc1cc(CN(CCC)CC(O)COc2ccccc2C(=O)NCc2ccccc2)ccc1OC` (stereo not drawn) [Compound I-63, N-Benzyl-2-{2-hydroxy-3-[(4-methoxy-3-prop-2-ynyloxy-benzyl)-propyl-amino]-propoxy}-benzamide], the IC50 in test [1] worked out at 9490 nM; in test [2] it was 982 nM.

As for `O=C(NCc1ccccc1)c1ccccc1OCC(O)CNC1CCCCCCC1` (stereo not drawn) [Compound I-53, N-Benzyl-2-(3-cyclooctylamino-2-hydroxy-propoxy)-benzamide], the half-maximal inhibitory concentration (IC50) was determined as 197 nM in test [1] and 29 nM in test [2].

On to `CCCN(CC(O)COc1ccccc1C(=O)NCc1ccccc1)C1C2CC3CC(C2)CC1C3` (stereo not drawn) [Compound I-17, 2-[3-(Adamantan-2-yl-propyl-amino)-2-hydroxy-propoxy]-N-benzyl-benzamide], for which the half-inhibitory concentration (IC50) in test [1] was 1190 nM; in test [2], 209 nM.

Take `O=C(NCCc1ccccc1)c1ccccc1OCC(O)CNC1C2CC3CC(C2)CC1C3` (stereo not drawn) [Compound I-9, 2-[3-(Adamantan-2-ylamino)-2-hydroxy-propoxy]-N-phenethyl-benzamide]: the concentration for half-maximal inhibition (IC50) in test [1] was determined as 264 nM; in test [2], 29 nM.

In the case of `CCCCCN(CC(O)COc1ccccc1C(=O)NCc1ccccc1)C1C2CC3CC(C2)CC1C3` (stereo not drawn) [Compound I-19, 2-[3-(Adamantan-2-yl-pentyl-amino)-2-hydroxy-propoxy]-N-benzyl-benzamide], the IC50 in test [1] was determined as 153 nM; in test [2], 40 nM.

Turning to `O=C(NCc1ccccc1)c1ccccc1OCC(O)CNC1CCCCCCCCCCC1` (stereo not drawn) [Compound I-52, N-Benzyl-2-(3-cyclododecylamino-2-hydroxy-propoxy)-benzamide], the IC50 was 561 nM in test [1] and 52 nM in test [2].

On to `COc1ccccc1CNC(=O)c1ccccc1OCC(O)CNCC12CC3CC(CC(C3)C1)C2` (stereo not drawn) [Compound I-29, 2-{3-[(Adamantan-1-ylmethyl)-amino]-2-hydroxy-propoxy}-N-(2-methoxy-benzyl)-benzamide], for which the IC50 was 97 nM in test [1] and 5 nM in test [2].

Regarding `COc1ccc(CNC(=O)c2ccccc2OCC(O)CN2CCN(c3cccc(C)c3C)CC2)cc1` (stereo not drawn) [Compound I-51, 2-{3-[4-(2,3-Dimethyl-phenyl)-piperazin-1-yl]-2-hydroxy-propoxy}-N-(4-methoxy-benzyl)-benzamide], the IC50 in test [1] was 2020 nM; in test [2] it was 134 nM.

As for `COc1ccccc1CNC(=O)c1ccccc1OCC(O)CNC1C2CC3CC(C2)CC1C3` (stereo not drawn) [Compound I-7, 2-[3-(Adamantan-2-ylamino)-2-hydroxy-propoxy]-N-(2-methoxy-benzyl)-benzamide], the figures for the IC50 in test [1] and in test [2] were 198 nM and 99 nM, respectively.

`O=C(NCCCc1ccccc1)c1ccccc1OCC(O)CNC1C2CC3CC(C2)CC1C3` (stereo not drawn) [Compound I-11, 2-[3-(Adamantan-2-ylamino)-2-hydroxy-propoxy]-N-(3-phenyl-propyl)-benzamide]: the IC50 in test [1] is 186 nM; in test [2] it was 45 nM.

`O=C(c1ccccc1)c1ccc(CNCC(O)COc2ccccc2C(=O)NCc2ccccc2)cc1` (stereo not drawn) [Compound I-49, 2-[3-(4-Benzoyl-benzylamino)-2-hydroxy-propoxy]-N-benzyl-benzamide]: the IC50 in test [1] came to 9300 nM; in test [2] it was 3230 nM.

`CCCNC(=O)c1ccccc1OCC(O)CNC1C2CC3CC(C2)CC1C3` (stereo not drawn) [Compound I-12, 2-[3-(Adamantan-2-ylamino)-2-hydroxy-propoxy]-N-propyl-benzamide]: the figures for the IC50 in test [1] and in test [2] were 611 nM and 92 nM, respectively.

Consider `O=C(NCc1ccccc1)c1ccccc1OCC(O)CNCC12CC3CC(CC(C3)C1)C2` (stereo not drawn) [Compound I-27, 2-{3-[(Adamantan-1-ylmethyl)-amino]-2-hydroxy-propoxy}-N-benzyl-benzamide], for which the results for the IC50 in test [1] and in test [2] were 177 nM and 50 nM, respectively.

In the case of `O=C(NCc1ccccc1)c1ccccc1OCC(O)CN(CCc1ccccc1)C1C2CC3CC(C2)CC1C3` (stereo not drawn) [Compound I-22, 2-[3-(Adamantan-2-yl-phenethyl-amino)-2-hydroxy-propoxy]-N-benzyl-benzamide], the results for the IC50 in test [1] and in test [2] were 368 nM and 251 nM, respectively.

The values above are taken from patent US20150141437A1, “AMIDOPHENOXYPROPANOLAMINES” (MEDIZINISCHE UNIVERSITÄT WIEN, priority 2012, published 2015).
